Literature values, collected in patent US5627202A, “Inhibitors of farnesyl-protein transferase” (Merck & Co., Inc., priority 1996, dated 1997).

Tested on: farnesyl-protein transferase
Settings: via HMG-CoA reductase inhibition

| Structure (SMILES) | Indirect inhibition of farnesyl-protein transferase in vivo |
| --- | --- |
| CC[C@H](C)C(=O)O[C@H]1C[C@@H](C)C=C2C=C[C@H](C)[C@H](CC[C@@H]3C[C@@H](O)CC(=O)O3)[C@H]21 [lovastatin] | Indirect inhibition of farnesyl-protein transferase in vivo |
| CC[C@H](C)C(=O)O[C@H]1CCC=C2C=C[C@H](C)[C@H](CC[C@@H]3C[C@@H](O)CC(=O)O3)[C@H]21 [compactin] | Indirect inhibition of farnesyl-protein transferase in vivo |
